This is an account of results in ChEMBL document CHEMBL5316357, “Discovery of Linvencorvir (RG7907), a Hepatitis B Virus Core Protein Allosteric Modulator, for the Treatment of Chronic HBV Infection” (J Med Chem, 2023).

Series [1] can be described thus: Octanol-water partition coefficient, logD of the compound at pH 7.4. Format: physicochemical.
Series [2] can be described thus: Clearance in human hepatocyte at 2 uM measured upto 120 mins by LC-MS/MS analysis. It counts as ADME, cell-based. Conditions: hepatocytes.
A short description of series [3]: AUC (0-infinity) in mouse plasma at 1 mg/kg,iv. It counts as ADME, organism-based. Set-up: dose 1 mg/kg, route iv. Conditions: in vivo.
Series [4] is described as follows: Oral bioavailability in rat plasma at 3 mg/kg. Conditions: for F: in vivo, po, 3 mg/kg. It counts as ADME, organism-based.
Series [5] can be described thus: Volume of distribution at steady state in mouse plasma at 1 mg/kg,iv. Format: ADME, organism-based. Conditions: read-out: Vdss.
Series [6] can be described thus: Cytotoxicity against human HepDE19 cells assessed as reduction in cell viability incubated for 5 days by CCK-8 assay. It counts as functional. Conditions: HepDE19, 120 h, time 5 day. For orientation: Tetrazolium dyes change colour on reduction, which living cells bring about.
Series [7] in a line: Clearance in mouse plasma at 1 mg/kg,iv. Format: ADME, organism-based.
The nature of series [8]: Half life in mouse plasma at 1 mg/kg,iv. Format: ADME, organism-based.
Series [9] can be described thus: AUC (0-infinity) in mouse plasma at 3 mg/kg,po. Format: ADME, organism-based. Set-up: dose 3 mg/kg, route po. Conditions: in vivo.
A short description of series [10]: AUC (0-infinity) in rat plasma at 3 mg/kg,po. Format: ADME, organism-based. Set-up: dose 3 mg/kg, route po. Conditions: for AUC: in vivo.
The nature of series [11]: Clearance in rat hepatocyte at 2 uM measured upto 120 mins by LC-MS/MS analysis. Format: ADME, cell-based. Conditions: hepatocytes.
The nature of series [12]: Oral bioavailability in mouse plasma at 3 mg/kg. Format: ADME, organism-based. Conditions: in vivo.
The test system of series [13] is Hepatitis B virus. Kind of series: Antiviral activity against HBV stably transfected in human HepG2.2.15 cells assessed as reduction of HBV DNA replication incubated for 5 days by q-PCR analysis. It counts as functional, organism-based. Conditions: HepG2 2.2.15, 120 h.
A short description of series [14]: AUC (0-infinity) in rat plasma at 1 mg/kg,iv. Set-up: dose 1 mg/kg, route iv. Format: ADME, organism-based.
Series [15] in a line: Ratio of AUC (0 to infinity) in liver to plasma of mouse at 3 mg/kg,po. Format: ADME, organism-based. Conditions: read-out: Ratio AUC.
Series [16] can be described thus: Clearance in human liver microsomes at 1 uM measured upto 30 mins in presence of NADPH by LC-MS/MS analysis. Format: ADME, Microsome. On the technique in general: Liver microsomes are vesicles of endoplasmic reticulum, rich in cytochrome P450 enzymes.
The nature of series [17]: Volume of distribution at steady state in rat plasma at 1 mg/kg,iv. Conditions: read-out: Vdss. It counts as ADME, organism-based.
Series [18] has as its target Voltage-gated inwardly rectifying potassium channel KCNH2 (Homo sapiens, UniProt Q12809). The experiment in a line: (§1) Inhibition of hERG stably expressed in CHO cells by whole-cell voltage-clamp assay. It counts as toxicity, cell-based. (In general: Block of hERG is tested as a sign of cardiac risk.)
For a further series, the target named is hERG (Homo sapiens, UniProt Q12809). The description is as §1. It counts as toxicity, cell-based. Conditions: human, CHO cells stably expressing hERG.
Series [19] in a line: Half life in rat plasma at 1 mg/kg,iv. Format: ADME, organism-based.
A short description of series [20]: Induction of CYP3A4 mRNA expression level in human hepatocytes at 10 uM incubated for 24 hrs by q-PCR analysis. It counts as ADME, cell-based, Hepatocyte.
Series [21] in a line: Clearance in rat plasma at 1 mg/kg,iv. It counts as ADME, organism-based.
Series [22] can be described thus: AUC (0-infinity) in mouse liver at 3 mg/kg,po. Format: ADME, organism-based. Set-up: dose 3 mg/kg, route po.
For series [23], the system named is Hepatitis B virus. Kind of series: Antiviral activity against AAV-Hepatitis B virus infected in C57BL/6 mouse assessed as reduction of serum HBV DNA level at 6 to 20 mg/kg,po qd for 8 weeks by quantitative real-time PCR analysis. It counts as functional, organism-based. Conditions: dose 6-20 mg/kg.
The test system of series [24] is Hepatitis B virus. The experiment in a line: Antiviral activity against AAV-Hepatitis B virus infected in C57BL/6 mouse assessed as reduction of serum HBeAg level at 6 to 20 mg/kg,po qd for 8 weeks by chemiluminescence immunoassay. Format: functional, organism-based. Conditions: dose 6-20 mg/kg.
The subject of series [25] is Hepatitis B virus. Kind of series: Antiviral activity against AAV-Hepatitis B virus infected in C57BL/6 mouse assessed as reduction of serum HBsAg level at 6 to 20 mg/kg,po qd for 8 weeks by chemiluminescence immunoassay. Conditions: dose 6-20 mg/kg. Format: functional, organism-based.
Series [26] relates to Hepatitis B virus. The experiment in a line: Antiviral activity against AAV-Hepatitis B virus infected in C57BL/6 mouse assessed as reduction of serum HBsAg level at 0.03 mg/kg,po qd for 8 weeks by chemiluminescence immunoassay. It counts as functional, organism-based.
For series [27], the system named is Hepatitis B virus. Kind of series: Antiviral activity against AAV-Hepatitis B virus infected in C57BL/6 mouse assessed as reduction of serum HBV DNA level at 0.03 mg/kg,po qd for 8 weeks by quantitative real-time PCR analysis. It counts as functional, organism-based.
Series [28] deals with Hepatitis B virus. The experiment in a line: Antiviral activity against AAV-Hepatitis B virus infected in C57BL/6 mouse assessed as reduction of serum HBeAg level at 0.03 mg/kg,po qd for 8 weeks by chemiluminescence immunoassay. It counts as functional, organism-based.

Calls of active or inactive are those of the source.

Usually logD stands for lipophilicity at a set pH, counting ionised and neutral species. A low value points to a more hydrophilic compound. As a reminder, the AUC is concentration integrated over time. By CC50 is commonly meant the concentration that lowers cell viability or growth by half. The clearance is a measure of how efficiently the substance is removed, as volume per time. The low end stands for a low capacity for elimination, the high end for a high capacity for elimination. A word on the half-life: it is the time needed for the level to fall by half in the phase considered. The low end stands for fast loss, the high end for slow loss. As a reminder, the EC50 is the concentration at which the effect is half-maximal. The term AUC(0-inf) denotes total exposure, with the tail of the curve extrapolated. A high value points to high exposure. In general, bioavailability refers to the share of a dose that reaches the circulation, judged against a reference dose that is usually intravenous. A lower bioavailability goes with poor availability. A word on the IC50: it is the midpoint of a concentration-inhibition curve. Usually IC20 stands for the concentration at which the effect reaches the 20% level. A lower IC20 goes with greater potency.

Voltage-gated inwardly rectifying potassium channel KCNH2, sequence (Q12809 whole entry): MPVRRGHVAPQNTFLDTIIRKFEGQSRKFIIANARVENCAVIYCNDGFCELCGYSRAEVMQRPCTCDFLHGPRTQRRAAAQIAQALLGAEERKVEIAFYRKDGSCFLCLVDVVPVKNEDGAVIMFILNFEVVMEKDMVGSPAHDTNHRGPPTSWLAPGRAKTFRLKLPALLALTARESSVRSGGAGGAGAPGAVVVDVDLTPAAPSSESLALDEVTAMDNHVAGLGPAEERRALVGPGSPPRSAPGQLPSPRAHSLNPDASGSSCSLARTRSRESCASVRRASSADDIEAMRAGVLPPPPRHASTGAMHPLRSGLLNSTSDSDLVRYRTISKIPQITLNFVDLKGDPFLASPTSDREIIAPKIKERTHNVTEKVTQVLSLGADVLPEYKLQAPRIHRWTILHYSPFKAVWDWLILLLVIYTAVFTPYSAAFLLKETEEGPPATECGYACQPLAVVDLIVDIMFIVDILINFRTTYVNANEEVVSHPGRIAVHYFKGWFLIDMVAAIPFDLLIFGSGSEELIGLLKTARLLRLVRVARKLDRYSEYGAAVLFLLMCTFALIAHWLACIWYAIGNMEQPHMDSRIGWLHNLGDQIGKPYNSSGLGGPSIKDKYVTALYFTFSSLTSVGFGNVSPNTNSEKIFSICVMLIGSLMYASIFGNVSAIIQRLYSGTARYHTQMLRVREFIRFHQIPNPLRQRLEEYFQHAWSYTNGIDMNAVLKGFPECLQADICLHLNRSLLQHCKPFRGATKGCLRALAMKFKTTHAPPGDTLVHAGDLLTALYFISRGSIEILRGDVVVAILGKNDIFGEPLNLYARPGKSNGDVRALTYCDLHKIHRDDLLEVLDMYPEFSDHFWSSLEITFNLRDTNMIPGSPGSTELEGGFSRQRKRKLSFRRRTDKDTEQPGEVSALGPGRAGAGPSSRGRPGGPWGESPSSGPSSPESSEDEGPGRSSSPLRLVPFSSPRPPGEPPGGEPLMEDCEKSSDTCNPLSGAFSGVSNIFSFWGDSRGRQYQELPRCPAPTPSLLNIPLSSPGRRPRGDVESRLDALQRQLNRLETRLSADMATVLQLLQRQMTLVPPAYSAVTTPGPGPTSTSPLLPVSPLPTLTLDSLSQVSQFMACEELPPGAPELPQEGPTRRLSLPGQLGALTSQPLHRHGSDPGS
hERG, sequence (Q12809 whole entry): as above

With `CCOC(=O)C1=C(CN2CCN3C(=O)N(CC(C)(C)C(=O)O)C[C@@H]3C2)NC(c2nccs2)=N[C@H]1c1ccc(F)cc1Cl`, the logD in series [1] stood at 1.67. In addition, the CLhep predicted at 2 µM in series [2] was 0.6 mL/min/kg; in [11], 22 mL/min/kg. The exposure (AUC) came to 323 µg·h/L in [3], 38 µg·h/L in series [9] and 70 µg·h/L in series [10]. The figures for the F in series [4] and in series [12] were 15.6% and 12%, respectively. Further, in series [5], the Vd came out at 2.2 L/kg. In [6], the CC50 came to 77 µM. For the same molecule, the clearance in series [7] is 58 mL/min/kg. The half-life in [8] was 54 min. In addition, the EC50 with Hepatitis B virus [13] was determined as 9 nM.
Turning to `CCOC(=O)C1=C(CN2CCN3C(=O)N(CC(C)(C)C(=O)O)C[C@@H]3C2)NC(c2nccs2)=N[C@H]1c1cccc(F)c1Cl`, the results for the AUC(0-inf) in series [14] (plasma), in series [10] (plasma) and in series [22] were 257 ng·h/mL, 26 ng·h/mL and 3760 ng·h/mL, respectively. For the same molecule, the logD in series [1] is 1.69. Moreover, the CLhep predicted at 2 µM in series [2] is 7 mL/min/kg; in series [11], 17 mL/min/kg. In [15], the Kp stood at 24. The AUC came to 471 µg·h/L in [3] and 154 µg·h/L in series [9]. In series [4] (plasma), this molecule registered a bioavailability of 10%. Also, the figures for the Vd in series [5] and in series [17] were 1.3 L/kg and 4.8 L/kg, respectively. Besides, the CLhep predicted at 1 µM in [16] is 0.4 mL/min/kg. In addition, the IC50 in [18] was more than 20 µM. In addition, at hERG, the IC20 is more than 10 µM. Besides, the CC50 in series [6] was more than 100 µM. Besides, the clearance in series [7] was 35 mL/min/kg; in series [21], 65 mL/min/kg. Moreover, the half-life is 108 min in [19] and 37.2 min in series [8]. The molecule further gave an Activity in [20] of 1%. The F in [12] is recorded as 33%. Also, in the series with Hepatitis B virus [13], the EC50 is 3 nM.
For the molecule `CCOC(=O)C1=C(CN2CCN3C(=O)N(CC(C)(C)C(=O)O)C[C@@H]3C2)N=C(c2nccs2)N[C@H]1c1cccc(F)c1C` [LINVENCORVIR], the Activity entry in the series with Hepatitis B virus [23], with Hepatitis B virus [24] and in the series on Hepatitis B virus [25] was “Dose-Dependent Effect” throughout. For the same molecule, in series [6], the CC50 was more than 100 µM. Also, in the series with Hepatitis B virus [13], the 50% effective concentration (EC50) was found to be 6 nM.
For `CCOC(=O)C1=C(CN2C[C@H]3CN(C(C)(C)C)C(=O)N3C[C@@H]2C(=O)O)NC(c2nccs2)=N[C@H]1c1ccc(F)cc1Cl`, the AUC in series [14] (in vivo) was determined as 188 µg·h/L; in [3], 65 µg·h/L; in series [9], 0.4 µg·h/L; in series [10], 2.7 µg·h/L. In series [15], the Kp amounted to 607. Further, the F is recorded as 1.4% in series [4] and 0.7% in [12]. The Vd in [5] was found to be 5.2 L/kg; in [17], 5.4 L/kg. Moreover, the CLhep predicted at 1 µM in [16] was 5 mL/min/kg. The molecule also yielded an IC50 in series [18] of 10 µM. On hERG, this molecule gave an IC20 of 2.2 µM. Moreover, in series [6], the CC50 is more than 100 µM. The values for the clearance in series [7] and in series [21] were 248 mL/min/kg and 87 mL/min/kg, respectively. Further, the half-life is 90 min in series [19] and 30 min in series [8]. In [20], this molecule gave an Activity of 4%. The AUC(0-inf) in [22] was found to be 279 ng·h/mL. The EC50 in the series on Hepatitis B virus [13] stood at 1 nM.
In series [1], `COC(=O)C1=C(CN2CCN3C(=O)N(CC(C)(C)C(=O)O)C[C@@H]3C2)NC(c2nccs2)=N[C@H]1c1ccc(F)cc1Cl` yielded a logD of 1.18. For the same molecule, the CLhep predicted at 2 µM is 9.2 mL/min/kg in series [2] and 14 mL/min/kg in [11]. Also, the F in series [4] is given as 7.1%. The CLhep predicted at 1 µM in series [16] was 2 mL/min/kg. The IC50 in series [18] is more than 20 µM. This molecule showed a concentration for an effect of 20% (IC20) on hERG of more than 10 µM. Also, the CC50 in series [6] is more than 100 µM. The same molecule yielded an Activity in [20] of 0.6%. In [10], this molecule showed an AUC of 26 µg·h/L. The EC50 in the series on Hepatitis B virus [13] worked out at 6 nM.
As for `C=C1[C@H](CO)[C@@H](O)C[C@@H]1n1cnc2c(=O)[nH]c(N)nc21`, the result with Hepatitis B virus [26] and in the series on Hepatitis B virus [28] was inactive. In addition, in the series with Hepatitis B virus [27], the result was Active.
